Laboratory results from US20080207751A1, “Sulindac Derivatives for Treatment of Cancer” (Sulfidris s.r.l., priority 2005, published 2008).
Where two headings read alike, the source gives them in different places.

Experiments:
Caco 2 cells = experiment: Anti-proliferative activity in Caco 2 cells; type: cell-based
Protocol: In order to analyze sulindac derivatives in combination therapies for treatment of colon cancer, the compound of example 4 was tested in Caco 2 cell lines comparatively with other known therapeutic agents at different concentrations.
The results of the treatment with 5-FU, celecoxib and docetaxel in Caco 2 cell are depicted in the Table 3 below reported.
In another experiment the compound of example 4 at IC50 concentration was incubated with submaximal concentrations of the anti-tumoral standard agents.

[1] = Five-day oral safety study in rats (deaths, gastrointestinal ulcers at autopsy); type: in vivo; details: male rats, once daily by gavage for five days; sulindac sulfoxide 20 mg/kg, compound example 1 36 mg/kg
Protocol: Thirty male rats (150-200 g) were divided into three groups of 10 animals/group and treated with vehicle, sulindac sulfoxide (20 mg/kg) and the compound example 1 (36 mg/kg) for five days once daily by gavage.
At the fifth day survival animals were sacrificed 6 hr after the treatment by an overdose of ether, and autopsied to detect any pathological changes, particularly in the gastrointestinal tract.

[2] = system: Aberrant crypt foci (ACF); experiment: Aberrant crypt foci (ACF) induced by 1,2-dimethylhydrazine in rats; type: in vivo; details: DMH-induced ACF, Sprague-Dawley rats; equivalent anti-inflammatory doses, twice daily orogastric gavage for 3 weeks
Protocol: Aberrant crypt foci (ACF) were induced in Sprague-Dawley rats by using 1,2-dimethylhydrazine (DMH). Test agents or vehicle were then administered for 3 weeks, twice daily through orogastric gavage.
At the end of this period, the number and multiplicity of ACF were determined.

| IC50 (Caco 2 cells; Homo sapiens) | SMILES | reduction of the number of ACF [2] | further results |
| --- | --- | --- | --- |
| 0.005 µM | CC(=O)O[C@@]12CO[C@@H]1C[C@H](O)[C@@]1(C)C(=O)[C@H](O)C3=C(C)[C@@H](OC(=O)[C@H](O)[C@@H](NC(=O)OC(C)(C)C)c4ccccc4)C[C@@](O)([C@@H](OC(=O)c4ccccc4)[C@H]21)C3(C)C [Docetaxel] |  |  |
|  | CC1=C(CC(=O)Oc2ccc(-c3cc(=S)ss3)cc2)c2cc(F)ccc2/C1=C\c1ccc([S+](C)[O-])cc1 (centres unmarked) [Example 1, (Z)-5-Fluoro-2-methyl-1-[[4-(methylsulfinyl)phenyl]methylene]-1H-indene-3-acetic acid 4-(thioxo-5H-1-[1,2]dithiol-3-yl)-phenyl ester] |  | % deaths [1]: 0%; % gastrontestinal ulcers [1]: 10% |
|  | CC1=C(CC(=O)Oc2ccc(-c3cc(=S)ss3)cc2)c2cc(F)ccc2/C1=C\c1ccc(S(C)(=O)=O)cc1 [Example 3, (Z)-5-Fluoro-2-methyl-1-[[4-(methylsulfone)phenyl]methylene]-1H-indene-3-acetic acid 4-(thioxo-5H-[1,2]dithiol-3-yl)-phenyl ester] | 45% |  |
| 55 µM | CC1=C(CC(=O)OCCSS(C)(=O)=O)c2cc(F)ccc2/C1=C\c1ccc([S+](C)[O-])cc1 (centres unmarked) [Example 4, (Z)-5-Fluoro-2-methyl-1-[[4-(methylsulfinyl)phenyl]methylene]-1H-indene-3-acetic acid 2-methanesulfonylsulfanylethyl ester] |  | anti-proliferative activity in combination with anti-tumoral standard agents (Caco 2 cells; compound at IC50 concentration incubated with submaximal concentrations of standard agents): marked potentiation |
|  | O=c1[nH]cc(F)c(=O)[nH]1 [Example 5-FU] |  | IC50 (Caco 2 cells): 28 µM |
|  | CC1=C(CC(=O)OCCSS(C)(=O)=O)c2cc(F)ccc2/C1=C\c1ccc(S(C)(=O)=O)cc1 [Example 8, (Z)-5-Fluoro-2-methyl-1-[[4-(methylsulfone)phenyl]methylene]-1H-indene-3-acetic acid 2-methanesulfonylsulfanylethyl ester] | 60% |  |
|  | CC1=C(CC(=O)O)c2cc(F)ccc2/C1=C\c1ccc([S+](C)[O-])cc1 (centres unmarked) [Sulindac sulfoxide, (Z)-5-Fluoro-2-methyl-1-[[4-(methylsulfinyl)phenyl]methylene]-1H-indene-3-acetic acid] | 46% | % deaths [1]: 70%; % gastrontestinal ulcers [1]: 100% |
| 60 µM | Cc1ccc(-c2cc(C(F)(F)F)nn2-c2ccc(S(N)(=O)=O)cc2)cc1 [celecoxib] | 22% |  |
|  | CC1=C(CC(=O)O)c2cc(F)ccc2/C1=C\c1ccc(S(C)(=O)=O)cc1 [sulindac sulfone, (Z)-5-Fluoro-2-methyl-1-[[4-(methylsulfone)phenyl]methylene]-1H-indene-3-acetic acid] | 36% |  |
